The results in this text go back to ChEMBL document CHEMBL5344480 (RSC Med Chem, 2024).

Experiment [1] deals with T1, 5-hydroxytryptamine receptor 2A (Homo sapiens, UniProt P28223). The experiment is described as follows: Inhibition of [125I](+/-)DOI binding to 5-HT2AR (unknown origin ) expressed in HEK293 cells at 10 uM by scintillation counter analysis. It counts as cell-based.
Experiment [2] has as its target T1, 5-hydroxytryptamine receptor 2A. Nature of the experiment: Inhibition of 5-HT2AR (unknown origin ) assessed as inhibition constant.
For experiment [3] the target is unchanged. Nature of the experiment: Inhibition of [125I](+/-)DOI binding to 5-HT2AR (unknown origin ) expressed in HEK293 cells assessed as inhibition constant by scintillation counter analysis. The class given is cell-based.
The target of experiment [4] is 5-hydroxytryptamine receptor 2B (Homo sapiens, UniProt P41595). The experiment is described as follows: Inhibition of [125I](+/-)DOI binding to 5-HT2BR (unknown origin ) expressed in CHO cells assessed as inhibition constant by scintillation counter analysis. The class given is cell-based.
Sequence of 5-hydroxytryptamine receptor 2B (P41595 whole entry): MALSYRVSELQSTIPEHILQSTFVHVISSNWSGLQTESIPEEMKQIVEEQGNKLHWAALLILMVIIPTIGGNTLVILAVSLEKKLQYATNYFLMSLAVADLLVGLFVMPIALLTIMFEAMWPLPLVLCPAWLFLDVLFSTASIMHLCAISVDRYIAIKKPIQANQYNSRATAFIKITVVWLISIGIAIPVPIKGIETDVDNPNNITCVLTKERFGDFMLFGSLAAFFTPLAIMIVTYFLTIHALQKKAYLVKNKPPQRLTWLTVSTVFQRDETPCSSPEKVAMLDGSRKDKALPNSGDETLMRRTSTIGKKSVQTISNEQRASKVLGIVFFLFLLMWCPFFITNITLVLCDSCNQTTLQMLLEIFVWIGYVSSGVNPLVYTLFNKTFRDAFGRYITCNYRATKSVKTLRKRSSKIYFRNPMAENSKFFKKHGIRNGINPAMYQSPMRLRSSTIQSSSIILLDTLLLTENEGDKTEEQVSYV

Active and inactive are the calls of the source. No cut-off for these calls is given here.

T1 sequence (P28223 whole entry): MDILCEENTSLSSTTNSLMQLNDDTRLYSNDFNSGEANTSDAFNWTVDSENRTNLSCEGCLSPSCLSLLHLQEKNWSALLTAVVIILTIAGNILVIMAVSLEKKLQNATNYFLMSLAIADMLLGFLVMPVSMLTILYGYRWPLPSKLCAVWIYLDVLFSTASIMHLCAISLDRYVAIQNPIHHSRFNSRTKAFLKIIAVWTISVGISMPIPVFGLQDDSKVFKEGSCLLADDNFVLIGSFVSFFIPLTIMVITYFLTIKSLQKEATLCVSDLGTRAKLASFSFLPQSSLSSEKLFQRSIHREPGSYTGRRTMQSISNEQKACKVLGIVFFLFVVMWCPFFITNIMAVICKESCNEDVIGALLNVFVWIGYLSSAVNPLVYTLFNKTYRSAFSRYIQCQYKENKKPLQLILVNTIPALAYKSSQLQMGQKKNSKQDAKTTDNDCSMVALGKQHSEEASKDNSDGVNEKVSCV

As to `CCOP(=O)(OCC)c1cccc2[nH]cc(CCN(C)C)c12`, the inhibition result in experiment [1] is “Active”.
Turning to `CN(C)CCc1c[nH]c2cccc(OP(=O)(O)O)c12` [PSILOCYBIN], the inhibitory constant (Ki) (in general, the dissociation constant of the complex between target and ligand, obtained from inhibition or displacement) in experiment [2] is > 10000 nM.
Take `CCOP(=O)(OCC)c1ccc2[nH]cc(CCN(C)C)c2c1`: the inhibition constant (Ki) in experiment [3] was determined as 620 nM; in experiment [4], 140 nM. The inhibition entry in experiment [1] is “Active”.
